Laboratory results reported in patent publication US9493472B2, “Substituted benzoxazoles” (BAYER PHARMA AKTIENGESELLSCHAFT, priority 2013, dated 2016).

Columns and labels:
thrombin [1] = molecular target: T1, thrombin (Homo sapiens (Human), UniProt P00734); assay: Thrombin-inhibitory activity in plasma samples (ecarin-activated); format: biochemical; conditions: citrate plasma, prothrombinase activated by ecarin, fluorogenic thrombin substrate; in some cases means; read-out: IC50 [nM] thrombin inhibition in plasma samples
Method: To determine the inhibition of thrombin in plasma samples, plasma […] is activated by ecarin. Thrombin activity and/or its inhibition by potential inhibitors is/are then measured fluorenscently by addition of a substrate.
The substances to be tested are dissolved in various concentrations in dimethyl sulphoxide and diluted with water. In white 96-well flat-bottomed plates, 20 μl of substance dilution are mixed with 20 μl of ecarin solution (ecarin reagent, from Sigma E-0504, final concentration 20 mU per reaction) in Ca buffer (200 mM Hepes+560 mM sodium chloride+10 mM calcium chloride+0.4% PEG) or with 20 μl of Ca buffer (as unstimulated control). Furthermore, 20 μl of fluorogenic thrombin substrate (from Bachem I-1120, final concentration 50 μmol/l) and 20 μl of citrate plasma (from Octapharma) are added, and the mixture is homogenized well. The plate is measured in a SpectraFluorplus Reader using a 360 nm excitation filter and a 465 nm emission filter every minute over 20 minutes.

[2] = system: plasma (prothrombin time); assay: Anticoagulatory activity: prothrombin time (PT) in plasma; conditions: 37° C., 3 minutes incubation, plasma species not given, in some cases means, read-out: IC50 [μM] (concentration of test substance which effects a doubling of the prothrombin time)
Method: The anticoagulatory activity of the test substances is determined in vitro in human plasma, rabbit plasma and rat plasma. To this end, blood is drawn off in a mixing ratio of sodium citrate/blood of 1:9 using a 0.11 molar sodium citrate solution as receiver. Immediately after the blood has been drawn off, it is mixed thoroughly and centrifuged at about 4000 g for 15 minutes. The supernatant is pipetted off.
The prothrombin time (PT, synonyms: thromboplastin time, quick test) is determined in the presence of varying concentrations of test substance or the corresponding solvent using a commercial test kit (Neoplastin® from Boehringer Mannheim or Hemoliance® RecombiPlastin from Instrumentation Laboratory). The test compounds are incubated with the plasma at 37° C. for 3 minutes. Coagulation is then started by addition of thromboplastin, and the time when coagulation occurs is determined. The concentration of test substance which effects a doubling of the prothrombin time is determined Representative activity data from this test are given in Table 3 below (in some cases as means of individual determinations): […]

thrombin [3] = molecular target: T1, thrombin; assay: Measurement of the thrombin inhibition in buffer; format: biochemical; conditions: human thrombin 0.06 nmol/l, Tris buffer pH 7.4, 22° C.; substrate Boc-Asp(OBzl)-Pro-Arg-AMC; in some cases means
Method: To determine the thrombin inhibition of the substances listed above, a biochemical test system is constructed in which the conversion of a thrombin substrate is used for determining the enzymatic activity of human thrombin. Here, thrombin cleaves aminomethylcoumarin, which is measured fluorescently, from the peptic substrate. The determinations are carried out in microtitre plates.
Substances to be tested are dissolved in various concentrations in dimethyl sulphoxide and incubated for 15 min with human thrombin (0.06 nmol/l dissolved in 50 mmol/l of Tris buffer [C,C,C-tris(hydroxymethyl)aminomethane], 100 mmol/l of sodium chloride, 0.1% BSA [bovine serum albumin], pH 7.4) at 22° C. The substrate (5 μmol/l Boc-Asp(OBzl)-Pro-Arg-AMC from Bachem) is then added. After 30 min of incubation, the sample is excited at a wavelength of 360 nm and the emission is measured at 460 nm. The measured emissions of the test batches with test substance are compared to the control batches without test substance (only dimethyl sulphoxide instead of test substance in dimethyl sulphoxide) and the IC50 values are calculated from the concentration/activity relationships.

| IC50 (thrombin [1]) [nM] | IC50 [2] [µM] | IC50 (thrombin [3]) [nM] | Compound |
| --- | --- | --- | --- |
| 4.7 |  | 1.7 | COc1cc(C(=O)N2CC3CCN3C(=O)C2C)cc2nc(NC(CF)c3cccc(Cl)c3)oc12 (single isomer, unassigned) [Example 23, 4-[(2-{[1-(3-Chlorophenyl)-2-fluoroethyl]amino}-7-methoxy-1,3-benzoxazol-5-yl)carbonyl]-3-methyl-1,4-diazabicyclo[4.2.0]octan-2-one] |
| 8.4 | 0.8 | 0.38 | COc1cc(C(=O)N2CC3(CC3)NC(=O)C2C)cc2nc(NC(CF)c3cccc(Cl)c3)oc12 (single isomer, unassigned) [Example 33, 7-[(2-{[1-(3-Chlorophenyl)-2-fluoroethyl]amino}-7-methoxy-1,3-benzoxazol-5-yl)carbonyl]-6-methyl-4,7-diazaspiro[2.5]octan-5-one] |
|  | 1.4 |  | COc1cc(C(=O)N2CC(C)OCC2CCO)cc2nc(NC(CF)c3cccc(Cl)c3)oc12 (stereo not drawn) [Example 13, (2-{[1-(3-Chlorophenyl)-2-fluoroethyl]amino}-7-methoxy-1,3-benzoxazol-5-yl)[5-(2-hydroxyethyl)-2-methylmorpholin-4-yl]methanone] |
| 16.5 |  | 9.7 | COc1cc(C(=O)N2CC(C)(C)OCC2CO)cc2nc(NC(CF)c3cccc(Cl)c3)oc12 (single isomer, unassigned) [Example 6, (2-{[1-(3-Chlorophenyl)-2-fluoroethyl]amino}-7-methoxy-1,3-benzoxazol-5-yl)[5-(hydroxymethyl)-2,2-dimethylmorpholin-4-yl]methanone] |
| 2 |  | 0.19 | CCO[C@@H]1CC(CO)N(C(=O)c2cc(OC)c3oc(NC(CF)c4cccc(Cl)c4)nc3c2)C1 (stereo partly drawn) [Example 26, (2-{[1-(3-Chlorophenyl)-2-fluoroethyl]amino}-7-methoxy-1,3-benzoxazol-5-yl)[(4R)-4-ethoxy-2-(hydroxymethyl)pyrrolidin-1-yl]methanone] |
| 4.7 | 1.1 | 4.3 | COc1cc(C(=O)N2CC(C)(C)OC[C@H]2CCO)cc2nc(NC(CF)c3cccc(Cl)c3)oc12 (stereo partly drawn) [Example 25, (2-{[1-(3-Chlorophenyl)-2-fluoroethyl]amino}-7-methoxy-0,2-benzoxazol-5-yl)[(5R)-5-(2-hydroxyethyl)-2,2-dimethylmorpholin-4-yl]methanone] |
| 7.3 |  | 0.7 | COc1cc(C(=O)N2CC3(CC3)NC(=O)C2C)cc2nc(NC(CF)c3cccc(Cl)c3)oc12 (stereo not drawn) [Example 32, 7-[(2-{[1-(3-Chlorophenyl)-2-fluoroethyl]amino}-7-methoxy-1,3-benzoxazol-5-yl)carbonyl]-6-methyl-4,7-diazaspiro[2.5]octan-5-one] |
| 4.5 |  |  | COc1cc(C(=O)N2CC(C)OC[C@@H]2CC(=O)O)cc2nc(NC(CF)c3cccc(Cl)c3)oc12 (single isomer, unassigned) [Example 24] |
| 4.8 |  | 1.1 | COc1cc(C(=O)N2CC(C)(C)OCC2CO)cc2nc(NC(CF)c3cccc(Cl)c3)oc12 (single isomer, unassigned) [Example 5, (2-{[1-(3-Chlorophenyl)-2-fluoroethyl]amino}-7-methoxy-1,3-benzoxazol-5-yl)[5-(hydroxymethyl)-2,2-dimethylmorpholin-4-yl]methanone] |
| 5 |  | 0.54 | CCO[C@@H]1CC(CCO)N(C(=O)c2cc(OC)c3oc(NC(CF)c4cccc(Cl)c4)nc3c2)C1 (single isomer, unassigned) [Example 31] |
| 170 |  | 20 | COc1cc(C(=O)N2CC3(CC3)NC(=O)C2C)cc2nc(NC(CF)c3cccc(Cl)c3)oc12 (single isomer, unassigned) [Example 34, 7-[(2-{[1-(3-Chlorophenyl)-2-fluoroethyl]amino}-7-methoxy-1,3-benzoxazol-5-yl)carbonyl]-6-methyl-4,7-diazaspiro[2.5]octan-5-one] |
| 56 |  | 2.3 | CCO[C@@H]1CC(CO)N(C(=O)c2cc(OC)c3oc(NC(CF)c4cccc(Cl)c4)nc3c2)C1 (single isomer, unassigned) [Example 28] |
| 15 |  | 1.1 | CCO[C@@H]1CC(CCO)N(C(=O)c2cc(OC)c3oc(NC(CF)c4cccc(Cl)c4)nc3c2)C1 (stereo partly drawn) [Example 29, (2-{[1-(3-Chlorophenyl)-2-fluoroethyl]amino}-7-methoxy-1,3-benzoxazol-5-yl)[(4R)-4-ethoxy-2-(2-hydroxyethyl)pyrrolidin-1-yl]methanone] |
| 14.3 |  | 0.2 | COc1cc(C(=O)N2CC(C)(CCO)OC[C@H]2C)cc2nc(NC(CF)c3cccc(Cl)c3)oc12 (stereo partly drawn) [Example 9, (2-{[1-(3-Chlorophenyl)-2-fluoroethyl]amino}-7-methoxy-1,3-benzoxazol-5-yl)[(5R)-2-(2-hydroxyethyl)-2,5-dimethylmorpholin-4-yl]methanone] |
| 46 |  | 5.3 | CCO[C@@H]1CC(CCO)N(C(=O)c2cc(OC)c3oc(NC(CF)c4cccc(Cl)c4)nc3c2)C1 (single isomer, unassigned) [Example 30] |
| 9.8 |  | 1.7 | COc1cc(C(=O)N2CC(C)(C)OCC2CO)cc2nc(NC(CF)c3cccc(Cl)c3)oc12 (stereo not drawn) [Example 4, (2-{[1-(3-Chlorophenyl)-2-fluoroethyl]amino}-7-methoxy-1,3-benzoxazol-5-yl)[5-(hydroxymethyl)-2,2-dimethylmorpholin-4-yl]methanone] |
| 21 |  | 3.2 | COc1cc(C(=O)N2CCC(O)C(C)C2)cc2nc(NC(CF)c3cccc(Cl)c3)oc12 (stereo not drawn) [Example 1, (2-{[1-(3-Chlorophenyl)-2-fluoroethyl]amino}-7-methoxy-1,3-benzoxazol-5-yl)(4-hydroxy-3-methylpiperidin-1-yl)methanone] |
| 25.3 |  | 11 | COc1cc(C(=O)N2CC(C)OC[C@H]2C)cc2nc(NC(CF)c3cccc(Cl)c3)oc12 (single isomer, unassigned) [Example 8] |
| 31 |  | 31 | COc1cc(C(=O)N2CCC(O)C(C)C2)cc2nc(NC(CF)c3cccc(Cl)c3)oc12 (single isomer, unassigned) [Example 2, (2-{[1-(3-Chlorophenyl)-2-fluoroethyl]amino}-7-methoxy-1,3-benzoxazol-5-yl)(4-hydroxy-3-methylpiperidin-1-yl)methanone] |
| 1400 |  | 130 | COc1cc(C(=O)N2CC(C)(CCO)OC[C@H]2C)cc2nc(NC(CF)c3cccc(Cl)c3)oc12 (single isomer, unassigned) [Example 10] |

| Compound | IC50 (thrombin [1]) [nM] | IC50 [2] [µM] | IC50 (thrombin [3]) [nM] |
| --- | --- | --- | --- |
| COc1cc(C(=O)N2CC(C)OC[C@]23C[C@H](O)C3)cc2nc(NC(CF)c3cccc(Cl)c3)oc12 (stereo partly drawn) [Example 21, (2-{[1-(3-Chlorophenyl)-2-fluoroethyl]amino}-7-methoxy-1,3-benzoxazol-5-yl)(cis-2-hydroxy-7-methyl-8-oxa-5-azaspiro[3.5]non-5-yl)methanone] | 6.2 | 1.3 | 1.4 |
| COc1cc(C(=O)N2CC(C)OC[C@]23C[C@H](O)C3)cc2nc(NC(CF)c3cccc(Cl)c3)oc12 (stereo partly drawn) [Example 22, (2-{[1-(3-Chlorophenyl)-2-fluoroethyl]amino}-7-methoxy-1,3-benzoxazol-5-yl)(cis-2-hydroxy-7-methyl-8-oxa-5-azaspiro[3.5]non-5-yl)methanone] | 3.8 |  | 1.6 |
